Like-named read-outs stand apart in the source and are kept apart here.
Legend:
H9 cells = assay: Effects on H9 cells of Ed6Br with prior activation by 420 nm light (Trypan Blue); type: cell-based; conditions: Homo sapiens, H9, 24 h, read-out: % Viable Cells
Protocol: H9 cells were cultivated in RPMI-1640 medium containing an additional 10% fetal calf serum at 37.5° C. in air having added 5% CO2. A 5.46 ml aliquot of cell suspension containing 9.16×10^5 H9 cells per ml was harvested, the cells sedimented at 450 x g for 10 minutes and resuspended in fresh growth medium. Two hundred microliter aliquots of the suspension were centrifuged as above and the resulting cell pellet served for resuspension in dye plus medium suspension for this study.
Six milliliters of suspension of Cremophor EL micelles containing Ed6Br in RPMI-1640 containing 10% additional fetal calf serum was made by diluting a 2.5 millimeter solution of the dye in Cremophor EL to give an average Ed6Br concentration of […], and the resulting suspension divided into 2 three milliliter aliquots. One aliquot was irradiated with 420 #5 nm light filtered from a xenon arc lamp at an irradiance of 20 mW/cm^2 to a total fluence of 200 J/cm^2. The companion aliquot was wrapped in aluminum foil and handled in identical fashion to the irradiated sample. These two aliquots served as stocks for deforming effects of both previously irradiated and un-irradiated Ed6Br at different concentrations from 0 up to 100 mM on H9 cells kept in the dark. Dulutions of the stock dye suspension into additional fresh growth medium were made within 1 hour of light irradiation to give dye-medium suspensions with average Ed6Br concentrations of […] for both previously irradiated and dark dye samples. The H9 cell pellets were resuspended in these dye-Cremophor EL suspensions and held at 37.5° C. in an air atmosphere containing an additional 5% CO2. After 24 hrs. culture of the number of total and viable […] was determined by Trypan Blue exclusion using a hemocytometer and microscope for cell counting.

[1] = tested on: F-actin polymers of G-actin; assay: Protein crosslinking with DiEd6Br: F-actin; type: biochemical; conditions: 40.0 μM, 400 J/cm^2
[2] = tested on: Vesicular stomatitis Virus (Ogden strain) (VSV), G-protein; type: biochemical; conditions: 10.0 μM, 460 J/cm^2
[3] = 2 G-protein units or 1 G-protein + 2 M-protein units

| SMILES | viability at 1 µM (H9 cells; no previous light activation) | viability at 1 µM (H9 cells; previous light activation) | viability at 10 µM (H9 cells; no previous light activation) | viability at 10 µM (H9 cells; previous light activation) | viability at 25 µM (H9 cells; no previous light activation) | viability at 25 µM (H9 cells; previous light activation) | viability at 50 µM (H9 cells; no previous light activation) | viability at 50 µM (H9 cells; previous light activation) | viability at 75 µM (H9 cells; no previous light activation) | viability at 75 µM (H9 cells; previous light activation) | heavier bands [1] | Inferred Crosslinked Species ([1]; first species) | Inferred Crosslinked Species ([1]; second species) | Inferred Crosslinked Species, Gel mw ([1]; 2 G-actin monomers) | Inferred Crosslinked Species, Gel mw ([1]; 3 G-actin monomers) | heavier bands [2] | Inferred Crosslinked Species [2, 3] | Inferred Crosslinked Species, Gel mw [2, 3] |
| --- | --- | --- | --- | --- | --- | --- | --- | --- | --- | --- | --- | --- | --- | --- | --- | --- | --- | --- |
| CCCCCCNc1c(Br)cc2c3c(cccc13)C(=O)N(CCCCCC)C2=O [Compound VII, 3-bromo-4-(hexyl)amino-N-hexyl-1,8-naphthalimide] | 72.7% | 68.4% | 77.2% | 31.8% | 57.9% | 4.9% | 27.4% | 0% | 33.9% | 0% |  |  |  |  |  |  |  |  |
| CCCCCCN1C(=O)c2cccc3c(NCCNC(=O)CCCCC(=O)NCCNc4c(Br)cc5c6c(cccc46)C(=O)N(CCCCCC)C5=O)c(Br)cc(c23)C1=O [Compound XLIV] |  |  |  |  |  |  |  |  |  |  | many ill separated heavier bands merging together near | 2 G-actin | 3 G-actin | 94 kD | 141 kD | many ill separated heavier bands merging together near | 2 G-protein | 130 kD |

Source: patent US5235045A, “Non-azo naphthalimide dyes” (priority 1992, dated 1993)
